pEC50: −log10 of the molar value. *1 amine or outer side, *2 acyl side, *3 side chain or, on linkers, in order; H or OH if unused. Where a SMILES comes first, the peptide text is derived from it. Bridges are numbered along the chain shown (N, C = ends). [ ]: non-standard residue; d: D form. Ala(1-bicyclo(1.1.1)pentyl) = N[C@@H](CC12CC(C1)C2)C(=O)O; X75 = CCC[C@H](N[*:1])c1nncn1[C@@H](Cc1ccccc1)C(=O)[*:2]; NMeNva(5-imidazol-1-yl) = CN[C@@H](CCCn1ccnc1)C(=O)O; Phe(4-guanidino) = N=C(N)Nc1ccc(C[C@H](N)C(=O)O)cc1; X55 = O=C([C@H](Cc1coc(-c2ccccc2)n1)N[*:1])[*:2]; Ala(pyrimidin-5-yl) = N[C@@H](Cc1cncnc1)C(=O)O; NMe3Pal(6-Me) = CN[C@@H](Cc1ccc(C)nc1)C(=O)O; X6 = O=C([C@H](Cc1cnn(C2COC2)c1)N[*:1])[*:2]; NMePhe(3-Me) = CN[C@@H](Cc1cccc(C)c1)C(=O)O; X25 = O=C([C@H](Cc1ccc(F)nc1)N[*:1])[*:2]; NMeNva(5,5-F2) = CN[C@@H](CCC(F)F)C(=O)O; NMeArg(Me) = CNC(=N)NCCC[C@H](NC)C(=O)O; X30 = O=C([C@H](Cc1ncccc1F)N[*:1])[*:2]; Nle(5,5-F2) = CC(F)(F)CC[C@H](N)C(=O)O; Phe(4-F) = N[C@@H](Cc1ccc(F)cc1)C(=O)O; 1Nal = N[C@@H](Cc1cccc2ccccc12)C(=O)O; NHCH2CH2SCH2CO = O=C(CSCCN[*:1])[*:2]; Phe(2-F) = N[C@@H](Cc1ccccc1F)C(=O)O; NMe3Pal = CN[C@@H](Cc1cccnc1)C(=O)O; X1 = O=C(C12CC(CN[*:1])(C1)C2)[*:2]; X17 = O=C([C@H](CCCCF)N[*:1])[*:2]; NMeOrn(Me) = CNCCC[C@H](NC)C(=O)O; Ala(cPr) = N[C@@H](CC1CC1)C(=O)O; NMeF = CN[C@@H](Cc1ccccc1)C(=O)O; PhLac = O=C(O)[C@@H](O)Cc1ccccc1; 3Pal = N[C@@H](Cc1cccnc1)C(=O)O; 4Pal = N[C@@H](Cc1ccncc1)C(=O)O; Ahp(2) = CCCCC[C@H](N)C(=O)O; Cba = N[C@@H](CC1CCC1)C(=O)O; hLeu = CC(C)CC[C@H](N)C(=O)O; αMeC = C[C@](N)(CS)C(=O)O; NMeA = CN[C@@H](C)C(=O)O; Nle = CCCC[C@H](N)C(=O)O; Nva = CCC[C@H](N)C(=O)O

In this assay the target is KRAS-G12D protein (Homo sapiens, UniProt P01116, G12D). The experiment in a line: SOS-mediated nucleotide exchange assay (BODIPY-GDP / Tb-streptavidin TR-FRET). The class given is biochemical.
Sequence of KRAS-G12D protein (P01116 1-188 isoform P01116-2 G12D): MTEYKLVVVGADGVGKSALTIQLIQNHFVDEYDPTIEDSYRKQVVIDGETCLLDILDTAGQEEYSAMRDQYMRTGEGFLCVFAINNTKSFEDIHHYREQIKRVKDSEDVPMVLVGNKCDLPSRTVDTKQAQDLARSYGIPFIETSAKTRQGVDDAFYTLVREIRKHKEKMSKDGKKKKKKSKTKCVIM
Take `CCC[C@@H]1NC(=O)[C@H](Cc2ccc(OC)cc2)NC(=O)[C@H](CC2CCC2)NC(=O)[C@H](Cc2cccnc2)NC(=O)[C@H](CCCNC(=N)N)NC(=O)[C@H](Cc2ccccc2)NC(=O)CSC[C@H](C(N)=O)NC(=O)[C@H](Cc2ccccc2)n2cnnc21` [SEQ ID NO: 64, cyclo(F-R-3Pal-cBuA- TyrOMe-124triazole- dC-ClAc)] ({CH2CO}-FR[3Pal][Cba]Y(Me)[X75][dC]-NH2; thioether N-7): the pEC50 was 5.55. With `CCCCC[C@@H]1NC(=O)[C@H](Cc2ccc(O)cc2)NC(=O)[C@H](CC(C)C)NC(=O)[C@H](Cc2ccc(O)cc2)NC(=O)[C@H](CCCNC(=N)N)NC(=O)[C@H](Cc2cccc3ccccc23)NC(=O)CSC[C@@H](C(N)=O)NC(=O)[C@H](Cc2ccccc2)N(C)C1=O` [compound 7, cyclo(INal-R-Y-L-Y-Ahp-NMeF-Cl-ClAc)] ({CH2CO}-[1Nal]RYLY[Ahp(2)][NMeF]C-NH2; thioether N-8), the pEC50 is 5.79. The molecule `CC(C)CC[C@@H]1NC(=O)[C@H](Cc2cnn(C3COC3)c2)NC(=O)[C@H](CC2CC2)NC(=O)[C@H](Cc2cncnc2)NC(=O)[C@H](C)N(C)C(=O)[C@H](Cc2ccccc2)OC(=O)C23CC(CNC(=O)[C@H](Cc4ccccc4)N(C)C1=O)(C2)C3` [compound 300, cyclo(FLac-NMeA-PyrimAla-cPrA-AlaPyz1Ox-hL-NMeF-amBCP)] (cyclo([Ala(cPr)][X6][hLeu][NMeF][X1][PhLac][NMeA][Ala(pyrimidin-5-yl)])) had a negative logarithm of the EC50 (pEC50) of 6.60. As to `CCCC[C@@H]1NC(=O)[C@H](Cc2ccc(F)nc2)NC(=O)[C@H](C)N(C)C(=O)[C@H](Cc2ccccc2)OC(=O)C23CC(CNC(=O)[C@H](Cc4ccccc4)N(C)C(=O)[C@H](CCC)NC(=O)[C@H](Cc4ccccc4F)NC1=O)(C2)C3` [compound 234, cyclo(FLac-NMeA-4F3Pal-Nle-Phe2F-Nva-NMeF-amBCP)] (cyclo([NMeA][X25][Nle][Phe(2-F)][Nva][NMeF][X1][PhLac])), the pEC50 was 6.00.

The molecule `CCCC[C@@H]1NC(=O)[C@H](Cc2coc(-c3ccccc3)n2)NC(=O)[C@H](C)N(C)C(=O)[C@H](Cc2ccccc2)OC(=O)C23CC(CNC(=O)[C@H](Cc4ccccc4)N(C)C(=O)[C@H](CCCC)NC(=O)[C@H](Cc4ccccc4F)NC1=O)(C2)C3` [compound 307, cyclo(FLac-NMcA-AlaOxz2Ph-Nle-Phe2F-Nle-NMeF-amBCP)] (cyclo([NMeA][X55][Nle][Phe(2-F)][Nle][NMeF][X1][PhLac])) showed a negative logarithm of the EC50 (pEC50) of 6.81. With `CCCC[C@@H]1NC(=O)[C@H](Cc2ccccc2F)NC(=O)[C@H](CCCCF)NC(=O)[C@H](Cc2cncnc2)NC(=O)[C@H](C)N(C)C(=O)[C@H](Cc2ccccc2)OC(=O)C23CC(CNC(=O)[C@H](Cc4ccccc4)N(C)C1=O)(C2)C3` [compound 130, cyclo(FLac-NMeA-PyrimAla-NleF-Phe2F-Nle-NMeF-amBCP)] (cyclo([NMeA][Ala(pyrimidin-5-yl)][X17][Phe(2-F)][Nle][NMeF][X1][PhLac])) the figure was 8.61; with `Cc1cccc(C[C@H]2C(=O)NCC34CC(C3)(C4)C(=O)O[C@@H](Cc3ccccc3)C(=O)N(C)[C@@H](C)C(=O)N[C@@H](Cc3cncnc3)C(=O)N[C@@H](CC3CC3)C(=O)N[C@@H](Cc3ccccc3F)C(=O)N[C@@H](CCC(C)(F)F)C(=O)N2C)c1` [compound 275, cyclo(FLac-NMeA-PyrimAla-cPrA-Phe2F-Nle3F2-NMePhe3Me-amBCP)] (cyclo([Ala(cPr)][Phe(2-F)][Nle(5,5-F2)][NMePhe(3-Me)][X1][PhLac][NMeA][Ala(pyrimidin-5-yl)])), 9.00; with `CCCC[C@@H]1NC(=O)[C@H](Cc2ccc(NC(=N)N)cc2)NC(=O)[C@H](CCCNC(=N)N)NC(=O)[C@H](Cc2cccc3ccccc23)NC(=O)CNC(=O)[C@H](C)NC(=O)[C@H](Cc2ccccc2)N(C)C(=O)[C@H](CCCC)NC(=O)[C@H](Cc2ccc(O)cc2)NC1=O` [compound 199, cyclo(INal-R-Phe4Gn-Nle-Y-Nle-NMeF-A-G)] (cyclo([1Nal]R[Phe(4-guanidino)][Nle]Y[Nle][NMeF]AG)), 6.46. The molecule `CCCCC[C@@H]1NC(=O)[C@H](Cc2ccc(OC)cc2)NC(=O)[C@H](CC2CCC2)NC(=O)[C@H](Cc2cccnc2)NC(=O)[C@H](CCCNC)N(C)C(=O)[C@H](Cc2ccccc2)NC(=O)CSC[C@@](C)(C(N)=O)NC(=O)[C@H](Cc2ccc(C)nc2)N(C)C1=O` [compound 393, cyclo(F-NMeOrnMe-3Pal-cBuA-TyrOMe-Ahp-NMe3Pal4Me-aMeCl-ClAc)] ({CH2CO}-F[NMeOrn(Me)][3Pal][Cba]Y(Me)[Ahp(2)][NMe3Pal(6-Me)][αMeC]-NH2; thioether N-8) gave a negative-log EC50 (pEC50) of 6.88.

`CC(C)CC[C@@H]1NC(=O)[C@H](Cc2ccccc2F)NC(=O)[C@H](CC2CC2)NC(=O)[C@H](Cc2cncnc2)NC(=O)[C@H](CCC(F)F)N(C)C(=O)[C@H](Cc2ccccc2)OC(=O)C23CC(CNC(=O)[C@H](Cc4ccccc4)N(C)C1=O)(C2)C3` [compound 217, cyclo(FLac-NMeNvaF2-PyrimAla-cPrA-Phe2F-hL-NMeF-amBCP)] (cyclo([Ala(cPr)][Phe(2-F)][hLeu][NMeF][X1][PhLac][NMeNva(5,5-F2)][Ala(pyrimidin-5-yl)])): the negative logarithm of the EC50 (pEC50) is 6.76. `CCCCC[C@@H]1NC(=O)[C@H](Cc2ccc(OC)cc2)NC(=O)[C@H](CC2CCC2)NC(=O)[C@H](Cc2ccc(NC(=N)N)cc2)NC(=O)[C@H](CCCNC(=N)N)NC(=O)[C@H](Cc2ccccc2)NC(=O)CSC[C@@](C)(C(N)=O)NC(=O)[C@H](Cc2ccccc2)N(C)C1=O` [compound 346, cyclo(F-R-Phe4Gn-cBuA-TyrOMe-Ahp-NMeF-aMeCl-ClAc)] ({CH2CO}-FR[Phe(4-guanidino)][Cba]Y(Me)[Ahp(2)][NMeF][αMeC]-NH2; thioether N-8) showed a pEC50 of 8.91. Molecule `CCCC[C@@H]1NC(=O)[C@H](Cc2cccnc2)NC(=O)[C@H](CCCn2ccnc2)N(C)C(=O)[C@H](Cc2ccccc2)N(C)C(=O)C23CC(CNC(=O)[C@H](Cc4cccnc4)N(C)C(=O)[C@H](CCCC)NC(=O)[C@H](Cc4ccccc4F)NC1=O)(C2)C3` [compound 264, cyclo(NMeF-NMeNvalmid-3Pal-Nle-Phe2F-Nle-NMe3Pal-amBCP)] (cyclo([3Pal][Nle][Phe(2-F)][Nle][NMe3Pal][X1][NMeF][NMeNva(5-imidazol-1-yl)])) gave a pEC50 of 5.39. This pEC50 is 3.52 log units lower than that of the molecule before.

For the molecule `CCC[C@@H]1NC(=O)[C@H](Cc2ccc(OC)cc2)NC(=O)[C@H](CC(C)C)NC(=O)[C@H](Cc2cccnc2)NC(=O)[C@H](CCCNC(=N)N)NC(=O)[C@H](Cc2ccc(F)cc2)NC(=O)CSCCNC(=O)[C@H](Cc2ccccc2)N(C)C1=O` [compound 87, cyclo(Phe4F-R-3Pal-L-TyrOMe-Nva-NMeF-Cysteamine-ClAc)] (cyclo([3Pal]LY(Me)[Nva][NMeF][NHCH2CH2SCH2CO][Phe(4-F)]R)), the pEC50 is 5.80. `CCCC[C@@H]1NC(=O)[C@H](Cc2ccccc2)NC(=O)[C@H](C)N(C)C(=O)[C@H](Cc2ccccc2)OC(=O)C23CC(CNC(=O)[C@H](Cc4ccccc4)N(C)C(=O)[C@H](CCCC)NC(=O)[C@H](Cc4ccccc4F)NC1=O)(C2)C3` [compound 305, cyclo(FLac-NMeA-F-Nle-Phe2F-Nle-NMeF-amBCP)] (cyclo(F[Nle][Phe(2-F)][Nle][NMeF][X1][PhLac][NMeA])): the pEC50 was 5.75.

For `CC(C)CC[C@@H]1NC(=O)[C@H](Cc2ccccc2F)NC(=O)[C@H](CC23CC(C2)C3)NC(=O)[C@H](Cc2cncnc2)NC(=O)[C@H](C)N(C)C(=O)[C@H](Cc2ccccc2)OC(=O)C23CC(CNC(=O)[C@H](Cc4ccccc4)N(C)C1=O)(C2)C3` [compound 272, cyclo(FLac-NMeA-PyrimAla-AlaPent-Phe2F-hL-NMeF-amBCP)] (cyclo([NMeA][Ala(pyrimidin-5-yl)][Ala(1-bicyclo(1.1.1)pentyl)][Phe(2-F)][hLeu][NMeF][X1][PhLac])), the pEC50 was 6.32. For `CCCC[C@@H]1NC(=O)[C@H](Cc2cncnc2)NC(=O)[C@H](C)N(C)C(=O)[C@H](Cc2ccccc2)OC(=O)C23CC(CNC(=O)[C@H](Cc4ccccc4)N(C)C(=O)[C@H](CCCC)NC(=O)[C@H](Cc4ncccc4F)NC1=O)(C2)C3` [compound 229, cyclo(FLac-NMeA-PyrimAla-Nle-2Pal6F-Nle-NMeF-amBCP)] (cyclo([NMeA][Ala(pyrimidin-5-yl)][Nle][X30][Nle][NMeF][X1][PhLac])), the pEC50 was 6.25. Molecule `CCCC[C@@H]1NC(=O)[C@H](Cc2ccncc2)NC(=O)[C@H](CCCNC(=N)N)NC(=O)[C@H](Cc2cccc3ccccc23)NC(=O)CSC[C@H](C(=O)O)NC(=O)[C@H](Cc2ccccc2)N(C)C(=O)[C@H](CCCC)NC(=O)[C@H](Cc2ccc(O)cc2)NC1=O` [compound 198, cyclo(INal-R-4Pal-Nle-Y-Nle-NMeF-dC-ClAc)] ({CH2CO}-[1Nal]R[4Pal][Nle]Y[Nle][NMeF][dC]-OH; thioether N-8) had a negative logarithm of the EC50 (pEC50) of 6.52. This pEC50 lies 0.27 log units higher than the previous one. With `CCCC[C@@H]1NC(=O)[C@H](CCCCN)NC(=O)[C@H](CCCNC(=N)N)NC(=O)[C@H](Cc2cccc3ccccc23)NC(=O)CSC[C@H](C(N)=O)NC(=O)[C@H](Cc2ccccc2)N(C)C(=O)[C@H](CCCC)NC(=O)[C@H](Cc2ccc(O)cc2)NC1=O` [compound 19, cyclo(INal-R-K-Nle-Y-Nle-NMeF-dCl-ClAc)] the figure was 5.89. As to `CCCCC[C@@H]1NC(=O)[C@H](Cc2ccc(OC)cc2)NC(=O)[C@H](CC2CCC2)NC(=O)[C@H](Cc2ccc(NC(=N)N)cc2)NC(=O)[C@H](CCCNC(=N)NC)N(C)C(=O)[C@H](Cc2ccccc2)NC(=O)CSC[C@@](C)(C(N)=O)NC(=O)[C@H](Cc2ccccc2)N(C)C1=O` [compound 380, cyclo(F-NMeArgMe-Phe4Gn-cBuA-TyrOMe-Abp-NMeF-aMeCl-ClAc)] ({CH2CO}-F[NMeArg(Me)][Phe(4-guanidino)][Cba]Y(Me)[Ahp(2)][NMeF][αMeC]-NH2; thioether N-8), the pEC50 was 8.78. With `CCCC[C@@H]1NC(=O)[C@H](Cc2cnn(C3COC3)c2)NC(=O)[C@H](C)N(C)C(=O)[C@H](Cc2ccccc2)OC(=O)C23CC(CNC(=O)[C@H](Cc4ccccc4)N(C)C(=O)[C@H](CCCC)NC(=O)[C@H](Cc4ccccc4F)NC1=O)(C2)C3` [compound 317, cyclo(FLac-NMeA-AlaPyz1Ox-Nle-Phe2F-Nle-NMeF-amBCP)] (cyclo([NMeA][X6][Nle][Phe(2-F)][Nle][NMeF][X1][PhLac])) the figure was 7.64.

The values above are taken from patent US20260001914A1, “MACROCYCLIC PEPTIDES TARGETING KRAS” (Merck Sharp & Dohme LLC, priority 2022, published 2026).
